Data taken from US11192891B2, “Diazaspiro ROCK inhibitors” (BRISTOL-MYERS SQUIBB COMPANY, priority 2017, dated 2021).
Structures can show the parent of a compound that is named as a salt.

Molecular target: ROCK2 (Homo sapiens, UniProt O75116)
Assay: ROCK kinase inhibition assay, FITC peptide substrate, LABCHIP 3000 readout
Type: biochemical
Settings: 5 μM ATP, 1.5 μM peptide substrate
Outline: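 Tested across a concentration range, with percent inhibition of kinase activity derived per concentration. Peptide phosphorylation, initiated by adding the Rho kinase variant (final DMSO <2%), was quenched with EDTA and substrate/product resolved by mobility shift.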

ROCK2, sequence (O75116 whole entry, species assumed): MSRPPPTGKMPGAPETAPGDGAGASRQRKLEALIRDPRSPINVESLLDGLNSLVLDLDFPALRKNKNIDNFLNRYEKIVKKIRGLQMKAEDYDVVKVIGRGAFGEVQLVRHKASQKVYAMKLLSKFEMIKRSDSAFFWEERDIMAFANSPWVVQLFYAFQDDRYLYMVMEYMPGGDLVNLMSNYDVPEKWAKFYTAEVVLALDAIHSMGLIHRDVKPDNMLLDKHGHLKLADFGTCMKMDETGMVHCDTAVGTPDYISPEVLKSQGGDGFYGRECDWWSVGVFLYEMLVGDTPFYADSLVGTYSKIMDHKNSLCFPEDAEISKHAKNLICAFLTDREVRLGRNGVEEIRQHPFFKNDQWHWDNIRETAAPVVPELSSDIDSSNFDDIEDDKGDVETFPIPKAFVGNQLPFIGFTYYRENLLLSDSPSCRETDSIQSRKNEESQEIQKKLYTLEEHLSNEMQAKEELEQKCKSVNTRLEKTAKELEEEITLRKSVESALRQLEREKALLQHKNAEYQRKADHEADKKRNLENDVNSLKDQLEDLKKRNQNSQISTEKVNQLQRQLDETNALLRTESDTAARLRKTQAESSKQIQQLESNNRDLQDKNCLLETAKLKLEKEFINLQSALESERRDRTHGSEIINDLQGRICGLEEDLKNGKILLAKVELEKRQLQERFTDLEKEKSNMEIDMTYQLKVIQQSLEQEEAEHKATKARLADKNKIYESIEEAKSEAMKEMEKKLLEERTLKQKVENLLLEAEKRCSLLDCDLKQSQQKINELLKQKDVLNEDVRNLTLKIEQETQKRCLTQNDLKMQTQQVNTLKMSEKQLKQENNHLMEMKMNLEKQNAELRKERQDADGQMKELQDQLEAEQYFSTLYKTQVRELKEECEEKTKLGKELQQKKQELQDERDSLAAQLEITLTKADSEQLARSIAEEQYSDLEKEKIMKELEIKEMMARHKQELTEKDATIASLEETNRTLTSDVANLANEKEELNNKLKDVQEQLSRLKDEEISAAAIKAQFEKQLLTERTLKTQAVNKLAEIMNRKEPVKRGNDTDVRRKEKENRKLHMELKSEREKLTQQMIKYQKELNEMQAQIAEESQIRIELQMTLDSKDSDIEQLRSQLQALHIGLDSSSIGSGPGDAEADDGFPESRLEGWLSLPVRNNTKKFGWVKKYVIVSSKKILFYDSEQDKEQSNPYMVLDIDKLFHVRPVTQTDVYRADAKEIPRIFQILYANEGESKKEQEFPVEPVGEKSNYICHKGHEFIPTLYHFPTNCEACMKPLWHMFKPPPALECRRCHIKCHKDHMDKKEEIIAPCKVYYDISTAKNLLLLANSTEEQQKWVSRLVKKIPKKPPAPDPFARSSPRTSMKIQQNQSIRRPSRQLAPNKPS

IC50 [nM] | Compound
8.8 | COc1cc(N2CCC3(CCN(C(=O)c4ccc(N5CCCCC5=O)cc4)CC3)C2=O)ccc1-c1cn[nH]c1 [Example 142, 2-[3-methoxy-4-(1H-pyrazol-4-yl)phenyl]-8-[4-(2-oxopiperidin-1-yl)benzoyl]-2,8-diazaspiro[4.5]decan-1-one]
106 | CN1CCN(c2ccc(C(=O)N3CCC4(CC3)CCN(c3ccc(-c5ccc6cn[nH]c6c5)cc3)C4=O)cc2)CC1 [Example 34, 2-[4-(1H-indazol-6-yl)phenyl]-8-[4-(4-methylpiperazin-1-yl)benzoyl]-2,8-diazaspiro[4.5]decan-1-one]
9.1 | COc1cc(N2CCC3(CCN(C(=O)c4ccc5c(c4)nnn5C)CC3)C2=O)ccc1-c1cn[nH]c1 [Example 196, 2-[3-methoxy-4-(1H-pyrazol-4-yl)phenyl]-8-(1-methyl-1H-1,2,3-benzotriazole-5-carbonyl)-2,8-diazaspiro[4.5]decan-1-one]
65 | COc1cc(N2CCC3(CCN(C(=O)c4ccc(Cl)cn4)CC3)C2=O)ccc1-c1cn[nH]c1 [Example 123, 8-(5-chloropyridine-2-carbonyl)-2-[3-methoxy-4-(1H-pyrazol-4-yl)phenyl]-2,8-diazaspiro[4.5]decan-1-one]
875 | O=C(C1CC1)N1CCC2(CC1)CCN(c1ccc(-c3cn[nH]c3)cc1)C2=O [Example 7, 8-cyclopropanecarbonyl-2-[4-(1H-pyrazol-4-yl)phenyl]-2,8-diazaspiro[4.5]decan-1-one]
112 | COc1c(F)cccc1C(=O)N1CCC2(CC1)CCN(c1ccc(-c3cn[nH]c3)cc1)C2=O [Example 8, 8-(3-Fluoro-2-methoxybenzoyl)-2-[4-(1H-pyrazol-4-yl)phenyl]-2,8-diazaspiro[4.5]decan-1-one]
1430 | COc1cc(N2CCC3(CCN(C(=O)c4cccn4C)CC3)C2=O)ccc1-c1cn[nH]c1 [Example 62, 2-[3-methoxy-4-(1H-pyrazol-4-yl)phenyl]-8-(1-methyl-1H-pyrrole-2 carbonyl)-2,8-diazaspiro[4.5]decan-1-one]
6.8 | CN1CCN(c2ccc(C(=O)N3CCC4(CC3)CCN(c3cccc(-c5ccc6cn[nH]c6c5)c3)C4=O)cc2)CC1 [Example 49, 2-[3-(1H-indazol-6-yl)phenyl]-8-[4-(4-methylpiperazin-1-yl)benzoyl]-2,8-diazaspiro[4.5]decan-1-one]
73 | COc1cc(N2CCC3(CCN(C(=O)c4ccc(NC(C)=O)cc4)CC3)C2=O)ccc1-c1cn[nH]c1 [Example 88, N-(4-{2-[3-methoxy-4-(1H-pyrazol-4-yl)phenyl]-1-oxo-2,8-diazaspiro[4.5]decane-8-carbonyl}phenyl)acetamide]
88 | COc1cc(N2CCC3(CCN(C(=O)c4cn5nc[nH]c(=O)c5c4C)CC3)C2=O)ccc1-c1cn[nH]c1 [Example 133, 2-[3-methoxy-4-(1H-pyrazol-4-yl)phenyl]-8-{5-methyl-4-oxo-3H,4H-pyrrolo[2,1-f][1,2,4]triazine-6-carbonyl}-2,8-diazaspiro[4.5]decan-1-one]
436 | COc1cc(N2CCC3(CCN(C(=O)[C@@H]4C[C@H]4c4ccccc4)CC3)C2=O)ccc1-c1cn[nH]c1 [Example 91, 2-[3-methoxy-4-(1H-pyrazol-4-yl)phenyl]-8-[(1R,2R)-2-phenylcyclopropanecarbonyl]-2,8-diazaspiro[4.5]decan-1-one]
2470 | COc1cc(CN2CCC(C(=O)N3CCC4(CC3)CCN(c3ccc(-c5cn[nH]c5)c(OC)c3)C4=O)CC2)ccc1F [Example 151, 8-{1-[(4-fluoro-3-methoxyphenyl)methyl]piperidine-4-carbonyl}-2-[3-methoxy-4-(1H-pyrazol-4-yl)phenyl]-2,8-diazaspiro[4.5]decan-1-one]
4.1 | COc1cc(N2CCC3(CCN(C(=O)c4ccc(-c5cccnc5)cc4)CC3)C2=O)ccc1-c1cn[nH]c1 [Example 158, 2-[3-methoxy-4-(1H-pyrazol-4-yl)phenyl]-8-[4-(pyridin-3-yl)benzoyl]-2,8-diazaspiro[4.5]decan-1-one]
896 | COc1cc(N2CCC3(CCN(C(=O)c4cc5cnccc5nc4C)CC3)C2=O)ccc1-c1cn[nH]c1 [Example 165, 2-[3-methoxy-4-(1H-pyrazol-4-yl)phenyl]-8-(2-methyl-1,6-naphthyridine-3-carbonyl)-2,8-diazaspiro[4.5]decan-1-one]
2.6 | COc1cc(N2CCC3(CCN(C(=O)c4ccc5c(c4)ncn5C)CC3)C2=O)ccc1-c1cn[nH]c1 [Example 164, 2-[3-methoxy-4-(1H-pyrazol-4-yl)phenyl]-8-(1-methyl-1H-1,3-benzodiazole-5-carbonyl)-2,8-diazaspiro[4.5]decan-1-one]
4 | COc1cc(N2CCC3(CCN(C(=O)c4ccc(N5CCCC5)cc4)CC3)C2=O)ccc1-c1cn[nH]c1 [Example 191]
9.3 | COc1cc(N2CCC3(CCN(C(=O)c4ccc(N5CCN(CC(c6ccccc6)c6ccccc6)CC5)cc4)CC3)C2=O)ccc1-c1cn[nH]c1 [Example 222, 8-{4-[4-(2,2-diphenylethyl)piperazin-1-yl]benzoyl}-2-[3-methoxy-4-(1H-pyrazol-4-yl)phenyl]-2,8-diazaspiro[4.5]decan-1-one]

IC50 [nM] | Compound
54 | COc1cc(N2CCC3(CCN(C(=O)c4ccc(Oc5ccccc5)cc4)CC3)C2=O)ccc1-c1cn[nH]c1 [Example 60, 2-[3-methoxy-4-(1H-pyrazol-4-yl)phenyl]-8-(4-phenoxybenzoyl)-2,8-diazapsiro[4.5]decan-1-one]
22 | COc1cc(N2CCC3(CCN(C(=O)c4ccc5c(c4)OCC(=O)N5)CC3)C2=O)ccc1-c1cn[nH]c1 [Example 157, 7-{2-[3-methoxy-4-(1H-pyrazol-4-yl)phenyl]-1-oxo-2,8-diazaspiro[4.5]decane-8-carbonyl}-3,4-dihydro-2H-1,4-benzoxazin-3-one]
467 | COc1cc(N2CCC3(CCN(C(=O)c4cc5ccccc5[nH]4)CC3)C2=O)ccc1-c1cn[nH]c1 [Example 68, 8-(1H-indole-2-carbonyl)-2-[3-methoxy-4-(1H-pyrazol-4-yl)phenyl]-2,8-diazaspiro[4.5]decan-1-one]
16.5 | COc1cc(N2CCC3(CCN(C(=O)c4ccc(-c5cc[nH]n5)cc4)CC3)C2=O)ccc1-c1cn[nH]c1 [Example 53, 2-[3-methoxy-4-(1H-pyrazol-4-yl)phenyl]-8-[4-(1H-pyrazol-3-yl)benzoyl]-2,8-diazaspiro[4.5]decan-1-one]
143 | Cn1nc(C(=O)N2CCC3(CC2)CCN(c2ccc(-c4cn[nH]c4)cc2)C3=O)c2ccccc21 [Example 6, 8-(1-methyl-1H-indazole-3-carbonyl)-2-[4-(1H-pyrazol-4-yl)phenyl]-2,8-diazaspiro[4.5]decan-1-one]
8 | COc1ccc(C(=O)N2CCC3(CC2)CCN(c2ccc(-c4cn[nH]c4)c(OC)c2)C3=O)cc1 [Example 13, 2-[3-methoxy-4-(1H-pyrazol-4-yl)phenyl]-8-(4-methoxybenzoyl)-2,8-diazaspiro[4.5]decan-1-one]
529 | COc1cc(N2CCC3(CCN(C(=O)c4cc5ccccc5o4)CC3)C2=O)ccc1-c1cn[nH]c1 [Example 70, 8-(1-benzofuran-2-carbonyl)-2-[3-methoxy-4-(1H-pyrazol-4-yl)phenyl]-2,8-diazaspiro[4.5]decan-1-one]
3.1 | COc1cc(N2CCC3(CCN(C(=O)c4ccc(N5CCN(C(C)CN(C)C)CC5)cc4)CC3)C2=O)ccc1-c1cn[nH]c1 (stereo not drawn) [Example 232, 8-(4-{4-[1-(dimethylamino)propan-2-yl]piperazin-1-yl}benzoyl)-2-[3-methoxy-4-(1H-pyrazol-4-yl)phenyl]-2,8-diazaspiro[4.5]decan-1-one]
11 | COc1ccc(C(=O)N2CCC3(CC2)CCN(c2ccc(-c4cn[nH]c4)c(OC)c2)C3=O)c(Cl)c1 [Example 122, 8-(2-chloro-4-methoxybenzoyl)-2-[3-methoxy-4-(1H-pyrazol-4-yl)phenyl]-2,8-diazaspiro[4.5]decan-1-one]
0.7 | COc1cc(N2CCC3(CCN(C(=O)c4ccc(N5CCN(C(C)CO)CC5)cc4)CC3)C2=O)ccc1-c1cn[nH]c1 (stereo not drawn) [Example 242, 8-{4-[4-(1-hydroxypropan-2-yl)piperazin-1-yl]benzoyl}-2-[3-methoxy-4-(1H-pyrazol-4-yl)phenyl]-2,8-diazaspiro[4.5]decan-1-one]
2090 | COc1cc(N2CCC3(CCN(C(=O)c4cn5[nH]c(=O)cc5nc4C)CC3)C2=O)ccc1-c1cn[nH]c1 [Example 131, 2-[3-methoxy-4-(1H-pyrazol-4-yl)phenyl]-8-{5-methyl-2-oxo-1H,2H-pyrazolo[1,5-a]pyrimidine-6-carbonyl}-2,8-diazaspiro[4.5]decan-1-one]
3.3 | COc1cc(N2CCC3(CCN(C(=O)c4ccc(N5CCCCS5(=O)=O)cc4)CC3)C2=O)ccc1-c1cn[nH]c1 [Example 192, 8-(4-(1,1-dioxido-1,2-thiazinan-2-yl)benzoyl)-2-(3-methoxy-4-(1H-pyrazol-4-yl)phenyl)-2,8-diazaspiro[4.5]decan-1-one]
17 | COc1ccc(C(=O)N2CCC3(CC2)CCN(c2ccc(-c4cn[nH]c4)c(OC)c2)C3=O)c(Br)c1 [Example 161, 8-(2-bromo-4-methoxybenzoyl)-2-[3-methoxy-4-(1H-pyrazol-4-yl)phenyl]-2,8-diazaspiro[4.5]decan-1-one]
5.4 | COc1cc(N2CCC3(CCN(C(=O)c4ccn5nc[nH]c(=O)c45)CC3)C2=O)ccc1-c1cn[nH]c1 [Example 202, 2-[3-methoxy-4-(1H-pyrazol-4-yl)phenyl]-8-{4-oxo-3H,4H-pyrrolo[2,1-f][1,2,4]triazine-5-carbonyl}-2,8-diazaspiro[4.5]decan-1-one]
1010 | O=C1N(c2ccc(-c3cn[nH]c3)cc2)CCC12CCNCC2 [Intermediate 3, 2-(4-(1H-pyrazol-4-yl)phenyl)-2,8-diazaspiro[4.5]decan-1-one, TFA]
16 | COc1cc(N2CCC3(CCN(C(=O)c4ccc(-c5nnco5)cc4)CC3)C2=O)ccc1-c1cn[nH]c1 [Example 163, 2-[3-methoxy-4-(1H-pyrazol-4-yl)phenyl]-8-[4-(1,3,4-oxadiazol-2-yl)benzoyl]-2,8-diazaspiro[4.5]decan-1-one]
